Target: T1, SARS-associated coronavirus protease 3CL^pro (Severe acute respiratory syndrome coronavirus, UniProt P0C6U8)
Experiment: not given
Type: binding

Point of comparison: `O=C(OCc1ccccc1COC(=O)c1cc(B(O)O)cc([N+](=O)[O-])c1)c1cc(B(O)O)cc([N+](=O)[O-])c1` [FL-136, 3-Borono-5-nitrobenzoic acid 1,2-benzenedimethanol ester], “ΔH (Binding Enthalpy of Selected Compounds to 3CL^pro)” value -9200 cal/mol. Against it:
- O=C(Oc1cccc(OC(=O)c2cc(B(O)O)cc([N+](=O)[O-])c2)c1)c1cc(B(O)O)cc([N+](=O)[O-])c1 [FL-106, 3-Borono-5-nitrobenzoic acid 1,3-phenylene ester] — higher, -5300 cal/mol
- O=C(Oc1ccc(OC(=O)c2cc(B(O)O)cc([N+](=O)[O-])c2)cc1)c1cc(B(O)O)cc([N+](=O)[O-])c1 [FL-078, 3-Borono-5-nitrobenzoic acid 1,4-phenylene ester] — higher, -4900 cal/mol
- O=C(Oc1ccc(OC(=O)c2cc(B(O)O)cc([N+](=O)[O-])c2)c(Cl)c1)c1cc(B(O)O)cc([N+](=O)[O-])c1 [FL-079, 3-Borono-5-nitrobenzoic acid 2-chloro-1,4-phenylene ester] — higher, -1700 cal/mol

Target: T1, SARS-associated coronavirus protease 3CL^pro
Experiment: biochemical

Point of comparison: `O=C(Oc1c(Cl)cccc1[N+](=O)[O-])c1ccc(B(O)O)cc1F` [FL-104, 4-(2-Chloro-6-nitrophenoxycarbonyl)-3-fluorophenylboronic acid], Ki 18 ± 1 µM. Against it:
- CCOC(=O)[C@H](Cc1ccccc1)NC(=O)c1cc(B(O)O)cc([N+](=O)[O-])c1 [FL-170, 3-borono-5-nitrobenzoyl-L-phenylalanine ethyl ester] — within error, 10.6 ± 7.5 µM
- O=C(OC(c1ccccc1)c1ccccc1)c1cc(B(O)O)cc([N+](=O)[O-])c1 [FL-149, 3-(1,1-Diphenylmethoxycarbonyl)-5-nitrophenylboronic acid] — 17-fold higher, 313 ± 170 µM
- O=C(Oc1cccc(OC(=O)c2cc(B(O)O)cc([N+](=O)[O-])c2)c1)c1cc(B(O)O)cc([N+](=O)[O-])c1 [FL-106, 3-Borono-5-nitrobenzoic acid 1,3-phenylene ester] — 2.1-fold lower, 8.5 ± 0.5 µM
- O=C(OC(C(=O)c1ccccc1)c1ccccc1)c1cc(B(O)O)cc([N+](=O)[O-])c1 (stereo not shown) [FL-097, 3-(1-Benzoyl-1-Phenylmethoxycarbonyl)-5-nitrophenylboronic acid] — 8.5-fold higher, 153 ± 58 µM
- O=C(Oc1ccccc1)c1cc(B(O)O)cc([N+](=O)[O-])c1 [FL-092, 3-Phenoxycarbonyl-5-nitrophenylboronic acid] — within error, 15.5 ± 6.5 µM
- O=C(Oc1ccc(F)cc1)c1cc(B(O)O)cc([N+](=O)[O-])c1 [FL-085, 3-(4-Fluorophenoxycarbonyl)-5-nitrophenylboronic acid] — 5.3-fold higher, 95 ± 30 µM
- O=C(Nc1cc(B(O)O)cc([N+](=O)[O-])c1)c1c(Cl)cccc1Cl [FL-108, 3-(2,6-Dichlorobenzamido)-5-nitrophenylboronic acid] — within error, 15 ± 7 µM
- O=C(Oc1cccnc1Cl)c1cc(B(O)O)cc([N+](=O)[O-])c1 [FL-089, 3-(2-Chloro-3-pyridyloxycarbonyl)-5-nitrophenylboronic acid] — 13-fold higher, 241 ± 85 µM
- O=C(OCc1ccccc1COC(=O)c1cc(B(O)O)cc([N+](=O)[O-])c1)c1cc(B(O)O)cc([N+](=O)[O-])c1 [FL-136, 3-Borono-5-nitrobenzoic acid 1,2-benzenedimethanol ester] — 2.2-fold lower, 8 ± 1.7 µM
- O=C(NCc1ccccc1)c1cccc(B(O)O)c1 [FL-1010, 3-(Benzylcarbamoyl)phenylboronic acid] — 4.7-fold higher, 84 ± 45 µM
- O=C(OCc1cccc(Cl)c1)c1cc(B(O)O)cc([N+](=O)[O-])c1 [FL-095, 3-(3-Chlorobenzyloxycarbonyl)-5-nitrophenylboronic acid] — 5.1-fold higher, 91.8 ± 8.8 µM
- O=C(O)c1cc(O)cc(B(O)O)c1 [FL-172, (3-carboxy-5-hydroxyphenyl)boronic acid] — 5.1-fold lower, 3.5 ± 3.9 µM
- O=C(Oc1ccccc1F)c1cc(B(O)O)cc([N+](=O)[O-])c1 [FL-081, 3-(2-Fluorophenoxycarbonyl)-5-nitrophenylboronic acid] — 9.9-fold higher, 179 ± 70 µM
- Nc1cc(B(O)O)cc(C(=O)O)c1 [FL-088, 3-amino-5-carboxylphenylboronic acid] — 3.5-fold higher, 63 ± 14 µM
- O=C(Oc1c(Cl)cc(Cl)cc1[N+](=O)[O-])c1cc(B(O)O)cc([N+](=O)[O-])c1 [FL-107, 3-(2,4-Dichloro-6-nitro-phenoxycarbonyl)-5-nitro-phenylboronic acid] — 2.6-fold lower, 6.9 ± 0.3 µM
- O=C(Oc1ccc(OC(=O)c2ccc(B(O)O)cc2F)c(Cl)c1)c1ccc(B(O)O)cc1F [FL-103, 4-Borono-2-fluorobenzoic acid 2-chloro-1,4-phenylene ester] — 2.2-fold higher, 39.1 ± 2.1 µM
- O=C(OCc1c(Cl)cccc1Cl)c1cc(B(O)O)cc([N+](=O)[O-])c1 [FL-086] — higher, > 1000 µM
- O=C(Oc1c(Cl)cccc1Cl)c1cc(B(O)O)cc([N+](=O)[O-])c1 [FL-080, 3-(2,6-Dichlorophenoxycarbonyl)-5-nitrophenylboronic acid] — 3.4-fold higher, 62 ± 6 µM
- O=C(Oc1ccc(OC(=O)c2cc(B(O)O)cc([N+](=O)[O-])c2)cc1)c1cc(B(O)O)cc([N+](=O)[O-])c1 [FL-078, 3-Borono-5-nitrobenzoic acid 1,4-phenylene ester] — 2.7-fold lower, 6.7 ± 0.9 µM
- O=C(OCc1cccc(B(O)O)c1)c1cc(B(O)O)cc([N+](=O)[O-])c1 [FL-101, 3-(3-Boronobenzyloxycarbonyl)-5-nitrophenylboronic acid] — within error, 21.7 ± 3.27 µM
- O=C(Oc1c(F)cccc1F)c1cc(B(O)O)cc([N+](=O)[O-])c1 [FL-082, 3-(2,6-Difluorophenoxycarbonyl)-5-nitrophenylboronic acid] — 8.8-fold higher, 158 ± 109 µM
- O=C(O)c1cc(NC(=O)c2ccccc2F)cc(B(O)O)c1 [FL-083, 3-(2-Fluorobenzamido)-5-carboxylphenylboronic acid] — 5.8-fold higher, 104 ± 38 µM
- CC(C)(C)c1cc(OC(=O)c2cc(B(O)O)cc([N+](=O)[O-])c2)ccc1OC(=O)c1cc(B(O)O)cc([N+](=O)[O-])c1 [FL-169, 3-Borono-5-nitrobenzoic acid, 2-tert-butyl-1,4-phenylene ester] — 1.8-fold higher, 32.7 ± 2.5 µM
- O=C(Oc1ccc2ccccc2c1)c1cc(B(O)O)cc([N+](=O)[O-])c1 [FL-151, 3-(2-Naphthoxycarbonyl)-5-nitrophenylboronic acid] — within error, 16.6 ± 6 µM
- O=C(Oc1cccc(B(O)O)c1)c1cc(B(O)O)cc([N+](=O)[O-])c1 [FL-100, 3-(3-Boronophenoxycarbonyl)-5-nitrophenylboronic acid] — 11-fold higher, 190 ± 100 µM
- O=C(Oc1cccc(B(O)O)c1)c1ccc(C(=O)Oc2cccc(B(O)O)c2)cc1 [FL-156, 1,4-Benzenedicarboxylic acid, di 3-boronophenyl ester] — 1.8-fold higher, 33 ± 9.4 µM
- O=C(OCc1cccc2ccccc12)c1cc(B(O)O)cc([N+](=O)[O-])c1 [FL-148, 3-(1-Naphthalenemethoxycarbonyl)-5-nitrophenylboronic acid] — within error, 21.5 ± 8.7 µM
- O=C(Oc1c(Cl)cc(Cl)cc1Cl)c1cc(B(O)O)cc([N+](=O)[O-])c1 [FL-139, 3-(2,4,6-Trichlorophenoxycarbonyl)-5-nitro-phenylboronic acid] — 4.1-fold higher, 73.3 ± 38 µM
- O=C(Oc1cccc(B(O)O)c1)c1c(Cl)cccc1Cl [FL-099, 3-(2,6-dichlorophenylcarbonyloxy)phenyl boronic acid] — higher, > 1000 µM
- O=C(OC1c2ccccc2CC1Br)c1cc(B(O)O)cc([N+](=O)[O-])c1 (stereo not shown) [FL-090, 3-(2-Bromo-1-indanoxycarbonyl)-5-nitrophenylboronic acid] — higher, > 1000 µM
- O=C(Oc1c(Cl)c(Cl)c(OC(=O)c2cc(B(O)O)cc([N+](=O)[O-])c2)c(Cl)c1Cl)c1cc(B(O)O)cc([N+](=O)[O-])c1 [FL-141, 3-Borono-5-nitrobenzoic acid 2,3,5,6-tetrachloro-1,4-phenylene ester] — 2.2-fold higher, 39.3 ± 11.7 µM
- O=C(OCc1cccc([N+](=O)[O-])c1)c1cc(B(O)O)cc([N+](=O)[O-])c1 [FL-094, 3-(3-Nitrobenzyloxycarbonyl)-5-nitrophenylboronic acid] — 2.2-fold higher, 39 ± 5 µM
- O=C(Oc1ccc(OC(=O)c2cc(B(O)O)cc([N+](=O)[O-])c2)c(Cl)c1)c1cc(B(O)O)cc([N+](=O)[O-])c1 [FL-079, 3-Borono-5-nitrobenzoic acid 2-chloro-1,4-phenylene ester] — within 1.5-fold, 23.7 ± 3 µM
- O=C(Oc1ccc(OC(=O)c2cc(B(O)O)cc([N+](=O)[O-])c2)c2ccccc12)c1cc(B(O)O)cc([N+](=O)[O-])c1 [FL-167, 3-Borono-5-nitrobenzoic acid, 1,4-dihydroxynaphthalene ester] — 1.8-fold lower, 10.2 ± 2.2 µM
- Cc1ccc(B(O)O)cc1NC(=O)c1c(Cl)cccc1Cl [FL-110, 3-(2,6-Dichlorobenzamido)-4-methylphenylboronic acid] — 2.1-fold higher, 37 ± 9.7 µM
- O=C(Oc1cc(OC(=O)c2cc(B(O)O)cc([N+](=O)[O-])c2)cc(OC(=O)c2cc(B(O)O)cc([N+](=O)[O-])c2)c1)c1cc(B(O)O)cc([N+](=O)[O-])c1 [FL-164, Tris-(3-borono-5-nitrobenzoic acid), 1,3,5-trihydroxybenzene ester] — 4.4-fold higher, 79.6 ± 14.1 µM
- O=C(Oc1cc(=O)oc2ccccc12)c1cc(B(O)O)cc([N+](=O)[O-])c1 [FL-133, 3-(4-Coumarinoxycarbonyl)-5-nitrophenylboronic acid] — higher, > 1000 µM
- O=C(Nc1cc(B(O)O)ccc1Cl)c1c(Cl)cccc1Cl [FL-109, 3-(2,6-Dichlorobenzamido)-4-chlorophenylboronic acid] — 3.4-fold higher, 61.5 ± 19.7 µM
- O=C(Oc1ccccc1Br)c1cc(B(O)O)cc([N+](=O)[O-])c1 [FL-096, 3-(2-Bromophenoxycarbonyl)-5-nitro-phenylboronic acid] — 7.6-fold higher, 137 ± 61 µM
- O=C(Oc1ccncc1)c1cc(B(O)O)cc([N+](=O)[O-])c1 [FL-087, 3-(4-pyridyloxycarbonyl)-5-nitro-phenylboronic acid] — 3.7-fold higher, 66 ± 2 µM
- O=[N+]([O-])c1cc(NS(=O)(=O)c2ccccc2)cc(B(O)O)c1 [FL-114, 3-benzenesulfonamido-5-nitrophenylboronic acid] — 2.8-fold higher, 49.8 ± 4.4 µM
- O=C(OCc1ccccc1)c1cc(B(O)O)cc([N+](=O)[O-])c1 [FL-1201, 3-Benzyloxycarbonyl-5-nitrophenylboronic acid] — 2-fold higher, 35.8 ± 11.5 µM
- O=C(Nc1cc(B(O)O)cc([N+](=O)[O-])c1)c1ccccc1F [FL-084, 3-(2-Fluorobenzamido)-5-nitrophenylboronic acid] — higher, > 1000 µM
- O=C(OCCN(CCOC(=O)c1cc(B(O)O)cc([N+](=O)[O-])c1)CCOC(=O)c1cc(B(O)O)cc([N+](=O)[O-])c1)c1cc(B(O)O)cc([N+](=O)[O-])c1 [FL-165, Tris(3-borono-5-nitrobenzoic acid), triethanolamine ester] — 2.8-fold higher, 50.6 ± 21.5 µM
